Read-outs that look alike come from different tables or passages of the source.
How the values were obtained:
rat nNOS = rat nNOS (Rattus norvegicus (Rat), UniProt P29476); experiment: Oxyhemoglobin NO capture assay with purified NOS; format: biochemical
Description: (§1) The oxyhemoglobin NO assays were performed with purified NOSs using a Biotek Gen5™ microplate reader as previously reported. […] For iNOS, calmodulin and CaCl2 were omitted because iNOS is calcium independent. […] The calculated standard deviations of the assays were less than 10% with all NOSs. […] The selectivity of antagonism of nNOS was determined by calculating the ratios of the Ki values with iNOS or eNOS to those with rat nNOS.

bovine eNOS = bovine eNOS (Bos taurus (Bovine), UniProt P29473); experiment: Oxyhemoglobin NO capture assay with purified NOS; format: biochemical; details: Table 9; for Ki: read-out: Ki eNOS; for e/n selectivity: ratio Ki eNOS / Ki rat nNOS
Description: as §1

murine iNOS = murine iNOS (Mus musculus (Mouse), UniProt P29477); experiment: Oxyhemoglobin NO capture assay with purified NOS; format: biochemical; details: for i/n selectivity: ratio Ki iNOS / Ki rat nNOS
Description: as §1

bsNOS = bsNOS (Bacillus subtilis (strain 168), UniProt O34453); experiment: Imidazole displacement, spectral binding constant KS
[1] = Plasma pharmacokinetics and brain distribution in mice; format: in vivo, male BALB/c mice; details: for C0: back extrapolated conc.; for clearance / half-life: 2 mg/kg; for Vd: read-out: Vss
Description: Pharmacokinetic study. A group of forty-eight male mice were divided into two groups: Group 1 (2 mg/kg; i.v.) and Group 2 (10 mg/kg; p.o.) with each group comprising twenty-four mice. […] The blood samples were collected from a set of three mice at each time point in labeled micro centrifuge tubes containing K2EDTA as anticoagulant. Plasma samples were separated by centrifugation of whole blood and stored below −70° C. until bioanalysis. […] Tissue samples were homogenized using ice-cold phosphate buffer saline (pH 7.4) and homogenates were stored below −70° C. until analyzed. The total homogenate volume was three times that of the tissue weight. […] Specific LC-MS/MS and MRM conditions are described below. Pharmacokinetic parameters were calculated using the non-compartmental analysis tool of Phoenix WinNonlin (Version 6.3).

[2] = male, BALB/c, mouse, brain, iv, i.v. 2 mg/kg
[3] = male, BALB/c, mouse, iv, i.v. 2 mg/kg, plasma
[4] = male, BALB/c, mouse, plasma, iv, i.v. 2 mg/kg
[5] = male, BALB/c, mouse, po, p.o. 10 mg/kg, plasma

Chain of bsNOS (O34453 whole entry): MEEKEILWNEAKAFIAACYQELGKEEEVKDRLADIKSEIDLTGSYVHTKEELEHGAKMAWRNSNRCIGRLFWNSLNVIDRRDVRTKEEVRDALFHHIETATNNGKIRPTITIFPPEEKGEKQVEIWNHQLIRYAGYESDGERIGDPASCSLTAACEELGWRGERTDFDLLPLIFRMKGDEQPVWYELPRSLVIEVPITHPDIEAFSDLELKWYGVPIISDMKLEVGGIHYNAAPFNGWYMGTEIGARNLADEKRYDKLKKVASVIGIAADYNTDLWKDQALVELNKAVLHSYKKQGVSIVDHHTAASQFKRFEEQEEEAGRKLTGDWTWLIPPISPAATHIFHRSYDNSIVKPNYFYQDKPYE

**Q.** Which Ki (rat nNOS; Table 9, read-out: Ki Rat nNOS) does the source give for `CCN(CCNC)c1cc(F)cc(CCc2cc(C)cc(N)n2)c1` [Compound 23d, N^1-(3-(2-(6-Amino-4-methylpyridin-2-yl)ethyl)-5-fluorophenyl)-N^1-ethyl-N^2-methylethane-1,2-diamine] here?
**A.** The Ki was 0.046 µM.

**Q.** What about the Ki (bovine eNOS) of the same molecule?
**A.** Its Ki is 4.29 µM.

**Q.** And the e/n selectivity (bovine eNOS)?
**A.** Its e/n selectivity is 93.2.

**Q.** What about the Ki (murine iNOS; Table 9, read-out: Ki iNOS) of the same molecule?
**A.** The Ki was 5.04 µM.

**Q.** What about the i/n selectivity (murine iNOS; Table 9) of the same molecule?
**A.** The i/n selectivity was 109.6.

**Q.** For `Cc1cc(N)nc(-c2ccc(CNCc3cccc(F)c3)cc2)c1` [Compound 29, 6-(4-(((3-Fluorobenzyl)amino)methyl)phenyl)-4-methylpyridin-2-amine], which Kd (bsNOS; KS (bsNOS), Table 5) is on record?
**A.** The Kd was 1.5 ± 0.3 µM.

**Q.** With `Nc1ccc2cc(CCNCc3cccc(F)c3)ccc2n1` [Compound 16] as the molecule, how does the Kd (bsNOS; KS (bsNOS), Table 5) read?
**A.** Its Kd is 95 ± 20 µM.

**Q.** What does the source list for `Cc1cc(N)nc(CCc2cc(C#N)cc(N(C)CCNC3CC3)c2)c1` [Compound 21c]?
**A.** Ki (rat nNOS; Table 9, read-out: Ki Rat nNOS): 0.114 µM; Ki (bovine eNOS): 31.1 µM; e/n selectivity (bovine eNOS): 274.0; Ki (murine iNOS; Table 9, read-out: Ki iNOS): 28 µM; i/n selectivity (murine iNOS; Table 9): 246.6

**Q.** With `Cc1cc(N)nc(CCc2cc(F)cc(NCc3ccc(F)cc3)c2)c1` [Compound 24, 6-(3-Fluoro-5-((4-fluorobenzyl)amino)phenethyl)-4-methylpyridin-2-amine] as the molecule, how does the Kd (bsNOS; KS (bsNOS), Table 5) read?
**A.** Its Kd is 29 ± 4 µM.

**Q.** Which Ki (rat nNOS; Table 9, read-out: Ki Rat nNOS) does the source give for `Cc1cc(N)nc(CCc2cc(F)cc(N3CCNCC3)c2)c1` [Compound 23h, 6-(3-Fluoro-5-(piperazin-1-yl)phenethyl)-4-methylpyridin-2-amine] here?
**A.** The Ki was 0.058 µM.

**Q.** What about the Ki (bovine eNOS) of the same molecule?
**A.** The Ki was 4.84 µM.

**Q.** What about the e/n selectivity (bovine eNOS) of the same molecule?
**A.** Its e/n selectivity is 82.8.

**Q.** And the Ki (murine iNOS; Table 9, read-out: Ki iNOS)?
**A.** The Ki was 3.51 µM.

**Q.** What about the i/n selectivity (murine iNOS; Table 9) of the same molecule?
**A.** Its i/n selectivity is 60.2.

**Q.** What does the source list for `CCNCCN(C)c1cc(F)cc(CCc2cc(C)cc(N)n2)c1` [Compound 23b, N^1-(3-(2-(6-Amino-4-methylpyridin-2-yl)ethyl)-5-fluorophenyl)-N^2-ethyl-N^1-methylethane-1,2-diamine]?
**A.** Ki (rat nNOS; Table 9, read-out: Ki Rat nNOS): 0.032 µM; Ki (bovine eNOS): 17.9 µM; e/n selectivity (bovine eNOS): 558.4; Ki (murine iNOS; Table 9, read-out: Ki iNOS): 6.38 µM; i/n selectivity (murine iNOS; Table 9): 199.4

**Q.** Which Kd (bsNOS; KS (bsNOS), Table 5) does the source give for `Nc1ccc2ccc(CNCCCc3cccc(F)c3)cc2n1` [Compound 21] here?
**A.** The Kd was 3.2 ± 0.1 µM.

**Q.** For `Cc1cc(N)nc(CCc2cc(F)cc(N(C)CCNC3CC3)c2)c1` [Compound 23c, N^1-(3-(2-(6-Amino-4-methylpyridin-2-yl)ethyl)-5-fluorophenyl)-N^2-cyclopropyl-N^1-methylethane-1,2-diamine], which Ki (rat nNOS; Table 9, read-out: Ki Rat nNOS) is on record?
**A.** Its Ki is 0.05 µM.

**Q.** And the Ki (bovine eNOS)?
**A.** Its Ki is 6.21 µM.

**Q.** What about the e/n selectivity (bovine eNOS) of the same molecule?
**A.** Its e/n selectivity is 124.3.

**Q.** What about the Ki (murine iNOS; Table 9, read-out: Ki iNOS) of the same molecule?
**A.** The Ki was 10.9 µM.

**Q.** And the i/n selectivity (murine iNOS; Table 9)?
**A.** Its i/n selectivity is 217.8.

**Q.** Which results are given for `CNCCN(C)c1cc(C#N)cc(CCc2cc(C)cc(N)n2)c1` [Compound 19c, 3-(2-(6-Amino-4-methylpyridin-2-yl)ethyl)-5-(methyl(2-(methylamino)ethyl)amino)benzonitrile]?
**A.** AUClast ([1]; i.v. 2 mg/kg, brain): 789.07 ng·h/g; CL ([1]; i.v. 2 mg/kg, brain): 21.18 mL/min/kg; C0 ([1]; i.v. 2 mg/kg, brain): 100.28 ng/g; CL ([1]; i.v. 2 mg/kg, plasma): 184.16 mL/min/kg; T1/2 ([1]; i.v. 2 mg/kg, plasma): 1.12 h; clearance [1, 2]: 21 mL/min/kg; half-life [1, 2]: 24.8 h; Vd ([1]; male, BALB/c, mouse, iv, i.v. 2 mg/kg, brain): 44 L/kg; AUC(0-inf) [1, 3]: 181 ng·h/mL; AUC(0-t) [1, 3]: 180 ng·h/mL; C0 ([1]; male, BALB/c, mouse, iv, i.v. 2 mg/kg, plasma, read-out: C0): 472 ng/mL; Vd [1, 3]: 14.8 L/kg; clearance [1, 4]: 184 mL/min/kg; half-life [1, 4]: 1.1 h; Cmax ([1]; male, BALB/c, mouse, po, p.o. 10 mg/kg, brain): 39.3 ng/g; Tmax ([1]; male, BALB/c, mouse, po, p.o. 10 mg/kg, brain, read-out: Tmax): 4 h; AUC(0-inf) [1, 5]: 182 ng·h/mL; AUC(0-t) [1, 5]: 162 ng·h/mL; Cmax [1, 5]: 50.8 ng/mL; Tmax ([1]; male, BALB/c, mouse, po, p.o. 10 mg/kg, plasma, read-out: Tmax): 0.25 h; % F (oral bioavailability) ([1]; p.o. 10 mg/kg vs i.v. 2 mg/kg, AUClast used): 18%; AUClast ([1]; p.o. 10 mg/kg, brain): 673.67 ng·h/g; Tmax ([1]; p.o. 10 mg/kg, plasma): 0.25 h; Ki (rat nNOS; Table 9, read-out: Ki Rat nNOS): 0.024 µM; Ki (bovine eNOS): 24.9 µM; Ki (murine iNOS; Table 9, read-out: Ki iNOS): 3.67 µM

**Q.** Which Kd (bsNOS; KS (bsNOS), Table 5) does the source give for `CNCCN(C)Cc1ccc(-c2cc(C)cc(N)n2)cc1` [Compound 26, N1-(4-(6-amino-4-methylpyridin-2-yl)benzyl)-N1,N2-dimethylethane-1,2-diamine] here?
**A.** Its Kd is 6.3 ± 0.3 µM.

**Q.** Which Ki (rat nNOS; Table 9, read-out: Ki Rat nNOS) does the source give for `Cc1cc(N)nc(CCc2cc(F)cc(NCc3cccc(Cl)c3)c2)c1` [Compound 23f, 6-(3-((3-Chlorobenzyl)amino)-5-fluorophenethyl)-4-methylpyridin-2-amine] here?
**A.** Its Ki is 0.027 µM.

**Q.** What about the Ki (bovine eNOS) of the same molecule?
**A.** The Ki was 7.08 µM.

**Q.** What about the e/n selectivity (bovine eNOS) of the same molecule?
**A.** Its e/n selectivity is 262.0.

**Q.** What about the Ki (murine iNOS; Table 9, read-out: Ki iNOS) of the same molecule?
**A.** The Ki was 9.56 µM.

**Q.** What about the i/n selectivity (murine iNOS; Table 9) of the same molecule?
**A.** Its i/n selectivity is 354.1.

**Q.** Which results are given for `Cc1cc(N)nc(CCc2cc(F)cc(NCCN(C)C)c2)c1` [Compound 23a, N^1-(3-(2-(6-Amino-4-methylpyridin-2-yl)ethyl)-5-fluorophenyl)-N^2,N^2-dimethylethane-1,2-diamine]?
**A.** Ki (rat nNOS; Table 9, read-out: Ki Rat nNOS): 0.07 µM; Ki (bovine eNOS): 9.58 µM; e/n selectivity (bovine eNOS): 136.9; Ki (murine iNOS; Table 9, read-out: Ki iNOS): 3.31 µM; i/n selectivity (murine iNOS; Table 9): 47.3

**Q.** For `Nc1ccc2cc(CNCCc3cccc(F)c3)ccc2n1` [Compound 17], which Kd (bsNOS; KS (bsNOS), Table 5) is on record?
**A.** Its Kd is 420 ± 130 µM.

**Q.** With `Cc1cc(N)nc(CCc2cccc([C@@H](N)Cc3cc(C)cc(N)n3)c2)c1` [Compound 3S, (S)-6-(2-Amino-2-(3-(2-(6-amino-4-methylpyridin-2-yl)ethyl)phenyl)ethyl)-4-methylpyridin-2-amine] as the molecule, how does the Ki (rat nNOS; Table 13, read-out: nNOS Ki) read?
**A.** Its Ki is 0.144 µM.

**Q.** What about the Ki (murine iNOS; Table 13, read-out: iNOS Ki) of the same molecule?
**A.** Its Ki is 17.7 µM.

**Q.** For `Nc1ccc2ccc(CCNCc3cccc(F)c3)cc2n1` [Compound 18], which Kd (bsNOS; KS (bsNOS), Table 5) is on record?
**A.** The Kd was 0.97 ± 0.04 µM.

**Q.** Which Kd (bsNOS; KS bsNOS, imidazole displacement, Tables 1 and 4) does the source give for `Cc1cc(N)nc(CCc2cccc(C(O)Cc3cc(C)cc(N)n3)c2)c1` (centres unmarked) [Compound 10] here?
**A.** The Kd was 1.89 µM.

Reference: US9951014B2, “Mammalian and bacterial nitric oxide synthase inhibitors” (Northwestern University, priority 2014, dated 2018)
